Assay results from PubChem BioAssay (NCI).
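Five compound concentrations were applied to cells in 96-well plates for 48 hours; endpoints were derived by simple linear interpolation of the resulting dose-response curve. TGI: total growth inhibition.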

Experiments:
Test in all cases: NCI tumour cell line growth inhibition, 48 h
NCI/ADR-RES ovarian = system: NCI/ADR-RES ovarian
MDA-N = system: MDA-N
U251 CNS = system: U251 CNS
CAKI-1 renal = system: CAKI-1 renal
NCI-H226 lung = system: NCI-H226 lung
M14 melanoma = system: M14 melanoma
SF-539 CNS = system: SF-539 CNS
SF-268 CNS = system: SF-268 CNS
A549 NSCLC = system: A549 NSCLC
LOX IMVI melanoma = system: LOX IMVI melanoma
DU-145 prostate = system: DU-145 prostate
TK-10 renal = system: TK-10 renal
786-0 renal = system: 786-0 renal
HT29 colon = system: HT29 colon
SW-620 colon = system: SW-620 colon
NCI-H522 lung = system: NCI-H522 lung
NCI-H460 lung = system: NCI-H460 lung
SK-OV-3 ovarian = system: SK-OV-3 ovarian
SF-295 CNS = system: SF-295 CNS
T-47D breast = system: T-47D breast
SK-MEL-28 melanoma = system: SK-MEL-28 melanoma
SN12C renal = system: SN12C renal
OVCAR-8 ovarian = system: OVCAR-8 ovarian
KM12 colon = system: KM12 colon
MALME-3M melanoma = system: MALME-3M melanoma
CCRF-CEM leukemia = system: CCRF-CEM leukemia
MOLT-4 leukemia = system: MOLT-4 leukemia
HCT-116 colon = system: HCT-116 colon
ACHN renal = system: ACHN renal
UACC-257 melanoma = system: UACC-257 melanoma
OVCAR-3 ovarian = system: OVCAR-3 ovarian
HCT-15 colon = system: HCT-15 colon
SK-MEL-5 melanoma = system: SK-MEL-5 melanoma
HOP-92 NSCLC = system: HOP-92 NSCLC
HOP-62 NSCLC = system: HOP-62 NSCLC
PC-3 prostate = system: PC-3 prostate
MDA-MB-231 breast = system: MDA-MB-231 breast
K-562 leukemia = system: K-562 leukemia
UACC-62 melanoma = system: UACC-62 melanoma
OVCAR-5 ovarian = system: OVCAR-5 ovarian
HCC-2998 colon = system: HCC-2998 colon
NCI-H23 lung = system: NCI-H23 lung
IGROV1 ovarian = system: IGROV1 ovarian
SK-MEL-2 melanoma = system: SK-MEL-2 melanoma
COLO 205 colon = system: COLO 205 colon
BT-549 breast = system: BT-549 breast
MDA-MB-435 = system: MDA-MB-435
MCF7 breast = system: MCF7 breast
OVCAR-4 ovarian = system: OVCAR-4 ovarian
EKVX NSCLC = system: EKVX NSCLC
SNB-19 CNS = system: SNB-19 CNS
UO-31 renal = system: UO-31 renal
HS 578T breast = system: HS 578T breast
HL-60(TB) leukemia = system: HL-60(TB) leukemia
SR leukemia = system: SR leukemia
SNB-75 CNS = system: SNB-75 CNS
A498 renal = system: A498 renal
RPMI-8226 leukemia = system: RPMI-8226 leukemia
RXF 393 renal = system: RXF 393 renal

Compound `O=[N+]([O-])c1ccc(-n2nc3ccc4c(no[n+]4[O-])c3n2)cc1` has a TGI (NCI/ADR-RES ovarian) of over 100 µM, a TGI (MDA-N) of over 100 µM and a TGI (U251 CNS) of over 100 µM. The TGI (CAKI-1 renal) was over 100 µM, the TGI (NCI-H226 lung) was over 100 µM and the TGI (M14 melanoma) was over 100 µM. The TGI (SF-539 CNS) was over 100 µM, the TGI (SF-268 CNS) was over 100 µM and the TGI (A549 NSCLC) was over 100 µM. For the same compound, the TGI (LOX IMVI melanoma) was over 100 µM, the TGI (DU-145 prostate) was over 100 µM and the TGI (TK-10 renal) was over 100 µM. It also gave a TGI (786-0 renal) of over 100 µM, a TGI (HT29 colon) of over 100 µM and a TGI (SW-620 colon) of over 100 µM. The TGI (NCI-H522 lung) was over 100 µM, the TGI (NCI-H460 lung) was over 100 µM and the TGI (SK-OV-3 ovarian) was over 100 µM. It also gave a TGI (SF-295 CNS) of over 100 µM, a TGI (T-47D breast) of over 100 µM and a TGI (SK-MEL-28 melanoma) of over 100 µM. It also gave a TGI (SN12C renal) of over 100 µM, a TGI (OVCAR-8 ovarian) of over 100 µM and a TGI (KM12 colon) of over 100 µM. It also gave a TGI (MALME-3M melanoma) of over 100 µM, a TGI (CCRF-CEM leukemia) of over 100 µM and a TGI (MOLT-4 leukemia) of over 100 µM. It also gave a TGI (HCT-116 colon) of over 100 µM, a TGI (ACHN renal) of over 100 µM and a TGI (UACC-257 melanoma) of over 100 µM. For the same compound, the TGI (OVCAR-3 ovarian) was over 100 µM, the TGI (HCT-15 colon) was over 100 µM and the TGI (SK-MEL-5 melanoma) was over 100 µM. For the same compound, the TGI (HOP-92 NSCLC) was over 100 µM, the TGI (HOP-62 NSCLC) was over 100 µM and the TGI (PC-3 prostate) was over 100 µM. It also gave a TGI (MDA-MB-231 breast) of over 100 µM, a TGI (K-562 leukemia) of over 100 µM and a TGI (UACC-62 melanoma) of over 100 µM. For the same compound, the TGI (OVCAR-5 ovarian) was over 100 µM, the TGI (HCC-2998 colon) was over 100 µM and the TGI (NCI-H23 lung) was over 100 µM. For the same compound, the TGI (IGROV1 ovarian) was over 100 µM, the TGI (SK-MEL-2 melanoma) was over 100 µM and the TGI (COLO 205 colon) was over 100 µM. It also gave a TGI (BT-549 breast) of over 100 µM, a TGI (MDA-MB-435) of over 100 µM and a TGI (MCF7 breast) of over 100 µM. It also gave a TGI (OVCAR-4 ovarian) of over 100 µM, a TGI (EKVX NSCLC) of over 100 µM and a TGI (SNB-19 CNS) of over 100 µM. For the same compound, the TGI (UO-31 renal) was over 100 µM, the TGI (HS 578T breast) was over 100 µM and the TGI (HL-60(TB) leukemia) was over 100 µM. It also gave a TGI (SR leukemia) of over 100 µM and a TGI (SNB-75 CNS) of over 100 µM.

Compound `COC(C)(C)/C=C/c1[nH]c2ccccc2c1CC(=O)NCCc1cn(C(c2ccccc2)(c2ccccc2)c2ccccc2)cn1` has a TGI (NCI/ADR-RES ovarian) of over 100 µM, a TGI (MDA-N) of 19.9 µM and a TGI (U251 CNS) of 16.5 µM. For the same compound, the TGI (CAKI-1 renal) was over 100 µM, the TGI (NCI-H226 lung) was 10.9 µM and the TGI (M14 melanoma) was 17.3 µM. It also gave a TGI (SF-539 CNS) of 14.1 µM, a TGI (SF-268 CNS) of over 100 µM and a TGI (A549 NSCLC) of over 100 µM. For the same compound, the TGI (A498 renal) was 12.9 µM, the TGI (LOX IMVI melanoma) was over 51.3 µM and the TGI (DU-145 prostate) was over 89.3 µM. For the same compound, the TGI (TK-10 renal) was over 40.5 µM, the TGI (786-0 renal) was 17.1 µM and the TGI (HT29 colon) was over 21.5 µM. It also gave a TGI (SW-620 colon) of over 100 µM, a TGI (NCI-H522 lung) of 14.3 µM and a TGI (NCI-H460 lung) of over 23.5 µM. It also gave a TGI (SK-OV-3 ovarian) of over 34.9 µM, a TGI (SF-295 CNS) of over 31.3 µM and a TGI (T-47D breast) of over 21.9 µM. The TGI (SK-MEL-28 melanoma) was 29.8 µM, the TGI (SN12C renal) was 19.2 µM and the TGI (OVCAR-8 ovarian) was over 100 µM. It also gave a TGI (KM12 colon) of over 87.3 µM, a TGI (MALME-3M melanoma) of 11.7 µM and a TGI (CCRF-CEM leukemia) of over 100 µM. It also gave a TGI (MOLT-4 leukemia) of 6.21 µM, a TGI (HCT-116 colon) of 14.8 µM and a TGI (ACHN renal) of over 100 µM. The TGI (UACC-257 melanoma) was 24.9 µM, the TGI (OVCAR-3 ovarian) was over 29.2 µM and the TGI (HCT-15 colon) was over 100 µM. The TGI (SK-MEL-5 melanoma) was 7.36 µM, the TGI (HOP-92 NSCLC) was over 28.3 µM and the TGI (HOP-62 NSCLC) was 34.4 µM. For the same compound, the TGI (PC-3 prostate) was 10.6 µM, the TGI (MDA-MB-231 breast) was 15 µM and the TGI (K-562 leukemia) was over 36 µM. For the same compound, the TGI (UACC-62 melanoma) was 21.3 µM, the TGI (OVCAR-5 ovarian) was over 30.5 µM and the TGI (HCC-2998 colon) was 2.95 µM. For the same compound, the TGI (RPMI-8226 leukemia) was 6.77 µM, the TGI (NCI-H23 lung) was 22.9 µM and the TGI (RXF 393 renal) was over 100 µM. The TGI (IGROV1 ovarian) was over 100 µM, the TGI (SK-MEL-2 melanoma) was 6.45 µM and the TGI (COLO 205 colon) was 3.85 µM. It also gave a TGI (BT-549 breast) of over 75.7 µM, a TGI (MDA-MB-435) of 22.3 µM and a TGI (MCF7 breast) of 15.5 µM. It also gave a TGI (OVCAR-4 ovarian) of over 100 µM, a TGI (EKVX NSCLC) of over 100 µM and a TGI (SNB-19 CNS) of over 100 µM. The TGI (UO-31 renal) was 61.8 µM, the TGI (HS 578T breast) was 60.2 µM and the TGI (HL-60(TB) leukemia) was 8.88 µM. It also gave a TGI (SR leukemia) of 5.8 µM.

Work on `COC1CC(OC2C(C)OC(OC3C(C)OC(OC4C(C)OC(O[C@H]5CC[C@@]6(C)C(=CC[C@]7(O)[C@@H]6C[C@@H](OC(C)=O)[C@@]6(C)[C@]7(O)CC[C@@]6(O)C(C)=O)C5)CC4OC)CC3OC)CC2OC)OC(C)C1O` (some centres undefined) yielded a TGI (NCI/ADR-RES ovarian) of over 25 µM, a TGI (MDA-N) of over 25 µM and a TGI (U251 CNS) of over 25 µM. It also gave a TGI (CAKI-1 renal) of over 25 µM, a TGI (NCI-H226 lung) of over 25 µM and a TGI (M14 melanoma) of over 25 µM. It also gave a TGI (SF-539 CNS) of over 25 µM, a TGI (SF-268 CNS) of over 25 µM and a TGI (A549 NSCLC) of over 25 µM. It also gave a TGI (LOX IMVI melanoma) of over 25 µM, a TGI (DU-145 prostate) of over 25 µM and a TGI (TK-10 renal) of over 25 µM. It also gave a TGI (786-0 renal) of over 25 µM, a TGI (HT29 colon) of over 25 µM and a TGI (SW-620 colon) of over 25 µM. The TGI (NCI-H522 lung) was over 25 µM, the TGI (SK-OV-3 ovarian) was over 25 µM and the TGI (SF-295 CNS) was over 25 µM. The TGI (T-47D breast) was over 25 µM, the TGI (SN12C renal) was over 25 µM and the TGI (OVCAR-8 ovarian) was over 25 µM. For the same compound, the TGI (KM12 colon) was over 25 µM, the TGI (MALME-3M melanoma) was over 25 µM and the TGI (CCRF-CEM leukemia) was over 25 µM. It also gave a TGI (MOLT-4 leukemia) of over 25 µM, a TGI (HCT-116 colon) of over 25 µM and a TGI (ACHN renal) of over 25 µM. The TGI (UACC-257 melanoma) was over 25 µM, the TGI (OVCAR-3 ovarian) was over 25 µM and the TGI (HCT-15 colon) was over 25 µM. It also gave a TGI (SK-MEL-5 melanoma) of over 25 µM, a TGI (HOP-92 NSCLC) of over 25 µM and a TGI (HOP-62 NSCLC) of over 25 µM. The TGI (PC-3 prostate) was over 25 µM, the TGI (MDA-MB-231 breast) was over 25 µM and the TGI (K-562 leukemia) was over 25 µM. The TGI (UACC-62 melanoma) was over 25 µM, the TGI (OVCAR-5 ovarian) was over 25 µM and the TGI (HCC-2998 colon) was over 25 µM. It also gave a TGI (RPMI-8226 leukemia) of over 25 µM, a TGI (NCI-H23 lung) of over 25 µM and a TGI (IGROV1 ovarian) of over 25 µM. It also gave a TGI (SK-MEL-2 melanoma) of over 25 µM, a TGI (COLO 205 colon) of over 25 µM and a TGI (BT-549 breast) of over 25 µM. The TGI (MDA-MB-435) was over 25 µM, the TGI (MCF7 breast) was over 25 µM and the TGI (OVCAR-4 ovarian) was over 25 µM. For the same compound, the TGI (EKVX NSCLC) was over 25 µM, the TGI (SNB-19 CNS) was over 25 µM and the TGI (UO-31 renal) was over 25 µM. It also gave a TGI (HS 578T breast) of over 25 µM, a TGI (HL-60(TB) leukemia) of over 25 µM and a TGI (SR leukemia) of over 25 µM. The TGI (SNB-75 CNS) was over 25 µM.
